Laboratory results published in PubChem BioAssay (NCI).
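96-well plates; 48 h exposure; 5 concentrations. Endpoints by linear interpolation between flanking doses. Not reached: highest tested concentration assigned. GI50: concentration for 50% inhibition of growth. TGI marks complete inhibition of growth.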

tested on: 786-0 renal; assay: NCI tumour cell line growth inhibition, 48 h

Compound | TGI [µM] | GI50 [µM]
O=C(Nc1ccccc1)OCCN=C1c2ccccc2C(Br)C(Br)c2ccccc21 (stereo not given) | 8.18 | 
COc1cc2c(cc1OC)[C@@H]1[C@H](C#N)C(=O)C(C)(C)N1CC2 | > 100 | 
COc1cc(/C=C/c2cc(/C=C/c3ccc(O)c(OC)c3)n(C(=O)Nc3ccc(F)cc3)n2)ccc1O | 6.8 | 1.08
CCc1ccc2c(c1)C(=O)c1c-2n(CCCBr)c(=O)c2cc([N+](=O)[O-])ccc12 | > 50 | 23.4
Nn1c(CCCCCCCCc2nnc(COc3ccc(Cl)cc3Cl)n2N)nnc1COc1ccc(Cl)cc1Cl | > 100 | 

tested on: A498 renal; assay: NCI tumour cell line growth inhibition, 48 h

Compound | TGI [µM] | GI50 [µM]
O=C(Nc1ccccc1)OCCN=C1c2ccccc2C(Br)C(Br)c2ccccc21 (stereo not given) | 18.1 | 
COc1cc2c(cc1OC)[C@@H]1[C@H](C#N)C(=O)C(C)(C)N1CC2 | > 100 | 
COc1cc(/C=C/c2cc(/C=C/c3ccc(O)c(OC)c3)n(C(=O)Nc3ccc(F)cc3)n2)ccc1O | 6.46 | 2.42
CCc1ccc2c(c1)C(=O)c1c-2n(CCCBr)c(=O)c2cc([N+](=O)[O-])ccc12 | > 50 | > 50
Nn1c(CCCCCCCCc2nnc(COc3ccc(Cl)cc3Cl)n2N)nnc1COc1ccc(Cl)cc1Cl | > 100 | 

tested on: A549 NSCLC; assay: NCI tumour cell line growth inhibition, 48 h

Compound | TGI [µM] | GI50 [µM]
O=C(Nc1ccccc1)OCCN=C1c2ccccc2C(Br)C(Br)c2ccccc21 (stereo not given) | 25.4 | 
COc1cc2c(cc1OC)[C@@H]1[C@H](C#N)C(=O)C(C)(C)N1CC2 | > 100 | 
COc1cc(/C=C/c2cc(/C=C/c3ccc(O)c(OC)c3)n(C(=O)Nc3ccc(F)cc3)n2)ccc1O | 18.3 | 2.44
CCc1ccc2c(c1)C(=O)c1c-2n(CCCBr)c(=O)c2cc([N+](=O)[O-])ccc12 | > 50 | > 50
Nn1c(CCCCCCCCc2nnc(COc3ccc(Cl)cc3Cl)n2N)nnc1COc1ccc(Cl)cc1Cl | > 100 | 

tested on: ACHN renal; assay: NCI tumour cell line growth inhibition, 48 h

Compound | TGI [µM] | GI50 [µM]
O=C(Nc1ccccc1)OCCN=C1c2ccccc2C(Br)C(Br)c2ccccc21 (stereo not given) | 20.6 | 
COc1cc2c(cc1OC)[C@@H]1[C@H](C#N)C(=O)C(C)(C)N1CC2 | > 100 | 
COc1cc(/C=C/c2cc(/C=C/c3ccc(O)c(OC)c3)n(C(=O)Nc3ccc(F)cc3)n2)ccc1O | 61.2 | 0.704
CCc1ccc2c(c1)C(=O)c1c-2n(CCCBr)c(=O)c2cc([N+](=O)[O-])ccc12 | > 50 | > 50
Nn1c(CCCCCCCCc2nnc(COc3ccc(Cl)cc3Cl)n2N)nnc1COc1ccc(Cl)cc1Cl | > 100 | 

tested on: BT-549 breast; assay: NCI tumour cell line growth inhibition, 48 h

Compound | TGI [µM] | GI50 [µM]
COc1cc2c(cc1OC)[C@@H]1[C@H](C#N)C(=O)C(C)(C)N1CC2 | > 100 | 
COc1cc(/C=C/c2cc(/C=C/c3ccc(O)c(OC)c3)n(C(=O)Nc3ccc(F)cc3)n2)ccc1O | > 19.7 | 1.18
CCc1ccc2c(c1)C(=O)c1c-2n(CCCBr)c(=O)c2cc([N+](=O)[O-])ccc12 | > 50 | > 50
Nn1c(CCCCCCCCc2nnc(COc3ccc(Cl)cc3Cl)n2N)nnc1COc1ccc(Cl)cc1Cl | > 100 | 

tested on: CAKI-1 renal; assay: NCI tumour cell line growth inhibition, 48 h

Compound | TGI [µM] | GI50 [µM]
O=C(Nc1ccccc1)OCCN=C1c2ccccc2C(Br)C(Br)c2ccccc21 (stereo not given) | 16.2 | 
COc1cc2c(cc1OC)[C@@H]1[C@H](C#N)C(=O)C(C)(C)N1CC2 | > 100 | 
COc1cc(/C=C/c2cc(/C=C/c3ccc(O)c(OC)c3)n(C(=O)Nc3ccc(F)cc3)n2)ccc1O | 49.5 | 0.77
CCc1ccc2c(c1)C(=O)c1c-2n(CCCBr)c(=O)c2cc([N+](=O)[O-])ccc12 | > 50 | > 50
Nn1c(CCCCCCCCc2nnc(COc3ccc(Cl)cc3Cl)n2N)nnc1COc1ccc(Cl)cc1Cl | > 100 | 

tested on: CCRF-CEM leukemia; assay: NCI tumour cell line growth inhibition, 48 h

Compound | TGI [µM] | GI50 [µM]
O=C(Nc1ccccc1)OCCN=C1c2ccccc2C(Br)C(Br)c2ccccc21 (stereo not given) | 5.3 | 
COc1cc2c(cc1OC)[C@@H]1[C@H](C#N)C(=O)C(C)(C)N1CC2 | > 100 | 
COc1cc(/C=C/c2cc(/C=C/c3ccc(O)c(OC)c3)n(C(=O)Nc3ccc(F)cc3)n2)ccc1O | 9.57 | 0.367
CCc1ccc2c(c1)C(=O)c1c-2n(CCCBr)c(=O)c2cc([N+](=O)[O-])ccc12 | > 50 | > 50

tested on: COLO 205 colon; assay: NCI tumour cell line growth inhibition, 48 h

Compound | TGI [µM] | GI50 [µM]
O=C(Nc1ccccc1)OCCN=C1c2ccccc2C(Br)C(Br)c2ccccc21 (stereo not given) | 13 | 
COc1cc2c(cc1OC)[C@@H]1[C@H](C#N)C(=O)C(C)(C)N1CC2 | > 100 | 
COc1cc(/C=C/c2cc(/C=C/c3ccc(O)c(OC)c3)n(C(=O)Nc3ccc(F)cc3)n2)ccc1O | 3.7 | 2.09
CCc1ccc2c(c1)C(=O)c1c-2n(CCCBr)c(=O)c2cc([N+](=O)[O-])ccc12 | > 50 | > 50
Nn1c(CCCCCCCCc2nnc(COc3ccc(Cl)cc3Cl)n2N)nnc1COc1ccc(Cl)cc1Cl | 70 | 

tested on: DU-145 prostate; assay: NCI tumour cell line growth inhibition, 48 h

Compound | TGI [µM] | GI50 [µM]
O=C(Nc1ccccc1)OCCN=C1c2ccccc2C(Br)C(Br)c2ccccc21 (stereo not given) | 16 | 
COc1cc2c(cc1OC)[C@@H]1[C@H](C#N)C(=O)C(C)(C)N1CC2 | > 100 | 
COc1cc(/C=C/c2cc(/C=C/c3ccc(O)c(OC)c3)n(C(=O)Nc3ccc(F)cc3)n2)ccc1O | 11.4 | 1.53
CCc1ccc2c(c1)C(=O)c1c-2n(CCCBr)c(=O)c2cc([N+](=O)[O-])ccc12 | > 50 | > 50
Nn1c(CCCCCCCCc2nnc(COc3ccc(Cl)cc3Cl)n2N)nnc1COc1ccc(Cl)cc1Cl | > 100 | 

tested on: EKVX NSCLC; assay: NCI tumour cell line growth inhibition, 48 h

Compound | TGI [µM] | GI50 [µM]
O=C(Nc1ccccc1)OCCN=C1c2ccccc2C(Br)C(Br)c2ccccc21 (stereo not given) | 19.8 | 
COc1cc2c(cc1OC)[C@@H]1[C@H](C#N)C(=O)C(C)(C)N1CC2 | > 100 | 
COc1cc(/C=C/c2cc(/C=C/c3ccc(O)c(OC)c3)n(C(=O)Nc3ccc(F)cc3)n2)ccc1O | 43.7 | 3.05
CCc1ccc2c(c1)C(=O)c1c-2n(CCCBr)c(=O)c2cc([N+](=O)[O-])ccc12 | > 50 | > 50
Nn1c(CCCCCCCCc2nnc(COc3ccc(Cl)cc3Cl)n2N)nnc1COc1ccc(Cl)cc1Cl | > 100 | 

tested on: HCC-2998 colon; assay: NCI tumour cell line growth inhibition, 48 h

Compound | TGI [µM] | GI50 [µM]
O=C(Nc1ccccc1)OCCN=C1c2ccccc2C(Br)C(Br)c2ccccc21 (stereo not given) | 20.8 | 
COc1cc2c(cc1OC)[C@@H]1[C@H](C#N)C(=O)C(C)(C)N1CC2 | > 100 | 
COc1cc(/C=C/c2cc(/C=C/c3ccc(O)c(OC)c3)n(C(=O)Nc3ccc(F)cc3)n2)ccc1O | 10.6 | 2.53
CCc1ccc2c(c1)C(=O)c1c-2n(CCCBr)c(=O)c2cc([N+](=O)[O-])ccc12 | > 50 | > 50
Nn1c(CCCCCCCCc2nnc(COc3ccc(Cl)cc3Cl)n2N)nnc1COc1ccc(Cl)cc1Cl | > 100 | 

tested on: HCT-116 colon; assay: NCI tumour cell line growth inhibition, 48 h

Compound | TGI [µM] | GI50 [µM]
O=C(Nc1ccccc1)OCCN=C1c2ccccc2C(Br)C(Br)c2ccccc21 (stereo not given) | 13.3 | 
COc1cc2c(cc1OC)[C@@H]1[C@H](C#N)C(=O)C(C)(C)N1CC2 | > 100 | 
COc1cc(/C=C/c2cc(/C=C/c3ccc(O)c(OC)c3)n(C(=O)Nc3ccc(F)cc3)n2)ccc1O | 10.3 | 0.422
CCc1ccc2c(c1)C(=O)c1c-2n(CCCBr)c(=O)c2cc([N+](=O)[O-])ccc12 | > 50 | > 50
Nn1c(CCCCCCCCc2nnc(COc3ccc(Cl)cc3Cl)n2N)nnc1COc1ccc(Cl)cc1Cl | 86.8 | 

tested on: HCT-15 colon; assay: NCI tumour cell line growth inhibition, 48 h

Compound | TGI [µM] | GI50 [µM]
O=C(Nc1ccccc1)OCCN=C1c2ccccc2C(Br)C(Br)c2ccccc21 (stereo not given) | > 24.2 | 
COc1cc2c(cc1OC)[C@@H]1[C@H](C#N)C(=O)C(C)(C)N1CC2 | > 100 | 
COc1cc(/C=C/c2cc(/C=C/c3ccc(O)c(OC)c3)n(C(=O)Nc3ccc(F)cc3)n2)ccc1O | 21.8 | 0.566
CCc1ccc2c(c1)C(=O)c1c-2n(CCCBr)c(=O)c2cc([N+](=O)[O-])ccc12 | > 50 | > 50
Nn1c(CCCCCCCCc2nnc(COc3ccc(Cl)cc3Cl)n2N)nnc1COc1ccc(Cl)cc1Cl | > 100 | 

tested on: HL-60(TB) leukemia; assay: NCI tumour cell line growth inhibition, 48 h

Compound | TGI [µM] | GI50 [µM]
O=C(Nc1ccccc1)OCCN=C1c2ccccc2C(Br)C(Br)c2ccccc21 (stereo not given) | 3.85 | 
COc1cc2c(cc1OC)[C@@H]1[C@H](C#N)C(=O)C(C)(C)N1CC2 | > 100 | 
COc1cc(/C=C/c2cc(/C=C/c3ccc(O)c(OC)c3)n(C(=O)Nc3ccc(F)cc3)n2)ccc1O | 1.93 | 0.364
CCc1ccc2c(c1)C(=O)c1c-2n(CCCBr)c(=O)c2cc([N+](=O)[O-])ccc12 | > 50 | > 50
